For orientation: Kd means the concentration at which binding is half-saturated. Read a low Kd as higher affinity.

Kd data for 1 molecule are collected here from paper PMC9354243, “The Role of Tryptophan in π Interactions in Proteins: An Experimental Approach” (Journal of the American Chemical Society, 2022).

In this experiment the target is T1, RibU W97Y labeled with 5FW (Lactococcus lactis subsp. cremoris, UniProt D8KIE9, W97Y).
T1 construct: His10; made in house; host or cells: Lactococcus lactis Trp auxotroph NZ9000-trp with pMG36e-trpRS
As to the kind of experiment: Fluorescence titration of RibU with RBF, 5FW variant. Type of experiment: binding. As to the method:
Fluorescence titration experiments of the different RibU constructs with RBF at 20 °C allowed estimation of the impact of W68 fluorination or 5-methylation on the binding affinity (Figure 3 and Table 5).
Figure 3 Titration of Trp analog labeled RibU W97Y proteins with RBF. The RBF fluorescence was measured at the indicated RBF concentrations in the absence (triangles) or presence (dots) of the W97Y RibU variant (see insets). The difference between these two signals were calculated to build the titration curve. This curve was used to compute the RBF Kd (see Experimental Section in the Supporting Information). […]
Binding assays – Fluorescence titrations of RibU with RBF.
The concentration of the riboflavin stock was established using a Jasco V-650 spectrophotometer with an ε435 of 12600 M-1.cm-1 The concentration of RibU-His was calculated using a Nanodrop (Thermo […]
Riboflavin was excited at 435 nm and emission was recorded between 450 nm and 700 nm using a FluoroLog 322 Spectrofluorometer (Jobin Yvon). […] Titration experiments were performed in a 1 mL quartz cuvette at 20 °C as described.13 In brief, purified and desalted RibU protein in gel filtration buffer was titrated with RBF and after each addition the emission spectrum was recorded twice, corrected for buffer emission and instrument response and integrated. […]

T1 sequence (D8KIE9 whole entry W97Y): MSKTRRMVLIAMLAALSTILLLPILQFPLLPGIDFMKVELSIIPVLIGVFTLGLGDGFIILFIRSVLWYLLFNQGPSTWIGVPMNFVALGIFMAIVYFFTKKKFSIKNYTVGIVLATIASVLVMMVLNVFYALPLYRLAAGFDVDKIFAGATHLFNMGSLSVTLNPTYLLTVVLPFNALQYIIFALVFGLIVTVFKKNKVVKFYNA

Molecule `Cc1cc2nc3c(=O)[nH]c(=O)nc-3n(C[C@H](O)[C@H](O)[C@H](O)CO)c2cc1C` [RBF, riboflavin] showed a Kd of 5.4 ± 1 nM.
